Here are results for one compound from patent publication US20260028364A1, “CATIONIC CHROMENONES AND THEIR USE IN ONCOLOGY” (FLORATEK PHARMA S.A., priority 2022, published 2026).

Series [1] deals with LoVo. Kind of series: CellTiter-Glo cell viability, LoVo. It is filed as cell-based. To be noted: Homo sapiens; LoVo cells, 72 h with compound. As for the experimental part:
(§1) Antitumor activity against a panel of cancer cell lines Antitumor activity of the compounds was assessed by using the CellTiter-Glow® Luminescent Cell Viability assay (Promega #G7572) according to the manufacturer's instructions. The compounds were tested at 5 or 6 concentrations in 1:2 dilution increments (highest concentration 10 µM) in triplicate well conditions.
(§2) Tumor cells were grown at 37° C. in a humidified atmosphere with 5% CO2 in RPMI 1640 or DMEM medium, supplemented with 10% (v/v) fetal calf serum and 50 μg/ml gentamicin for up to 20 passages, and were passaged once or twice weekly. Cells were harvested using TrypLE or PBS buffer containing 1 mM EDTA, and the percentage of viable cells is determined using a cell counter.
(§3) Cells were harvested from exponential phase cultures, counted and plated in 96 well flat-bottom microtiter plates at a cell density depending on the cell line's growth rate (4,000-20,000 cells/well depending on the cell line's growth rate) in RPMI 1640 or DMEM medium supplemented with 10% (v/v) fetal calf serum and 50 μg/ml gentamicin (140 μl/well). Cultures were incubated at 37° C. and 5% CO2 in a humidified atmosphere. […] Viability of cells was quantified by the CellTiter-Glow® Luminescent Cell Viability assay (Promega #G7572). Luminescence was measured with the microplate luminometer (En Vision Perkin Elmer). […]
A general note: In ATP-based viability assays light output follows the ATP content of the culture.

The test system of series [2] is K562. Kind of series: CellTiter-Glo cell viability, K562. Type of series: cell-based. The note with it: Homo sapiens; K562 cells, 72 h with compound. The method, then:
as §1, §2, §3

Series [3] concerns NALM-6. Kind of series: CellTiter-Glo cell viability, NALM-6. Type of series: cell-based. To be noted: Homo sapiens; NALM-6 cells, 72 h with compound. The method, then:
as §1, §2, §3

In series [4] the test system is NCI-H1299. Kind of series: CellTiter-Glo cell viability, NCI-H1299. Type of series: cell-based. To be noted: Homo sapiens, NCI-H1299; H1299 cells, 72 h with compound. As for the experimental part: as §1, §2
(§4) Cells were harvested from exponential phase cultures, counted and plated in 96 well flat-bottom microtiter plates at a cell density depending on the cell line's growth rate (4,000-20,000 cells/well depending on the cell line's growth rate) in RPMI 1640 or DMEM medium supplemented with 10% (v/v) fetal calf serum and 50 μg/ml gentamicin (140 μl/well). Cultures were incubated at 37° C. and 5% CO2 in a humidified atmosphere. After 24 h, 10 μl of test compounds or control medium are added, and left on the cells for another 72 h. Compounds were serially diluted in DMSO, transferred in cell culture medium, and added to the assay plates. The DMSO concentration was kept constant at <0.2% v/v across the assay plate. Viability of cells was quantified by the CellTiter-Glow® Luminescent Cell Viability assay (Promega #G7572). Luminescence was measured with the microplate luminometer (En Vision Perkin Elmer).
(§5) Sigmoidal concentration-response curves were fitted to the data points (test-versus-control, T/C values) obtained for each tumor model using Graph Pad prism 5.02 software. IC50 values are reported as absolute IC50 values, being the concentration of test compound at the intersection of the concentration-response curves with T/C=50%.

The subject of series [5] is NCI-H1975. Kind of series: CellTiter-Glo cell viability, NCI-H1975. It is filed as cell-based. The note with it: Homo sapiens, H-1975 cells, 72 h with compound. As for the experimental part: as §1, §2, §3
In series [6] the test system is SHP-77. Kind of series: CellTiter-Glo cell viability, SHP-77. It is filed as cell-based. The note with it: Homo sapiens, SHP77; SHP-77 cells, 72 h with compound. As for the experimental part:
as §1, §2, §3

Series [7] concerns A-673. Kind of series: CellTiter-Glo cell viability, A-673. Type of series: cell-based. The note with it: Homo sapiens, A673; A-673 cells, 72 h with compound. The method, then: as §1, §2, §4, §5
The test system of series [8] is SK-Mel-5. Kind of series: CellTiter-Glo cell viability, SK-Mel-5. Type of series: cell-based. The note with it: Homo sapiens; SK-Mel-5 cells, 72 h with compound. As for the experimental part:
as §1, §2, §4, §5

Series [9] relates to DMS-114. Kind of series: Caspase-Glo 3/7 apoptosis assay, DMS-114. It is filed as cell-based. The note with it: DMS-114 cells, 10 μM, 24 h. As for the experimental part:
(§6) Apoptosis activity was evaluated using Caspase-Glo 3/7 Assay kit (Promega-G8091) according to the manufacturer's instructions. Cells were grown as above and harvested from exponential phase cultures, counted and plated in 96 black well flat-bottom microtiter plates at a cell density depending on the cell line's growth rate (3,000-10,000 cells/well depending on the cell line's growth rate). Following an overnight incubation, compounds were added to the cell plates at various concentrations (highest at […]) with the DMSO concentration maintained at 0.1% for a 24 h period treatment. 100 μL of Caspase-Glo 3/7 Reagent was added to each well of 96-well plate containing 100 μL culture medium, and after 30 min at room temperature, luminescence was measured with the microplate luminometer (EnVision Perkin Elmer). The induced relative Caspase 3/7 activity of the tested compounds was determined by the following formula: Relative Caspase 3/7 activity (fold increase)=(RLU compound−RLU blank)/(RLU control−RLU blank).

For series [10], the system named is MDA-MB-468. Kind of series: Caspase-Glo 3/7 apoptosis assay, MDA-MB-468. It is filed as cell-based. To be noted: MDA-MB-468 cells, 10 μM, 24 h. The method, then: as §6
Series [11] has as its system A375. Kind of series: Caspase-Glo 3/7 apoptosis assay, A375. Type of series: cell-based. The note with it: A375 cells, 10 μM, 24 h. As for the experimental part:
as §6

In series [12] the test system is NFKB. Kind of series: SelectScreen CellSensor pathway inhibition, NFKB. Type of series: cell-based. To be noted: Homo sapiens; NFKB-bla Jurkat, stimulus TNF-alpha. The method, then:
Inhibition of various cellular pathways known to be involved in malignancy was tested using the SelectScreen Cell-based Pathway Profiling GeneBLAzer™ cell signaling pathway specific CellSensor™ cell lines ((Thermo Fisher). The assay is based on a beta-lactamase reporter activity which is modulated and can be measured quantitatively and selectively with the LiveBLAzer™-FRET B/G Loading Substrate. SelectScreen Cell-Based Pathway Profiling Service uses XLfit from IDBS. The dose response curve is curve fit to model number 205 (sigmoidal dose-response model). Custom logic was built by Thermo Fisher for the data analysis tool to address the different compound characteristics that can be observed with functional assays.
NFKB—NFKB-bla Jurkat—Inhibitor Screen, Activated by TNF-Alpha
NFKB-bla Jurkat cells are thawed and resuspended in Assay Media (DMEM, 10% dialyzed FBS, 25 mM HEPES pH 7.3, 0.1 mM NEAA, 100 U/mL/100 μg/mL Pen/Strep) to a concentration of 625,000 cells/mL. […] 4 μL of 10×control activator TNF-alpha at the pre-determined EC80 concentration is added to wells containing the control inhibitor or compounds.
The plate is incubated for 5 hours at 37° C./5% CO2 in a humidified incubator. […] The plate is read on a fluorescence plate reader.

Series [13] in a line: Tolerability in the A2058 xenograft study. The note with it: peritumoral QOD; resolved after the treatment was stopped. It is filed as in vivo, Balb-c/nude mouse. The method, then:
Each Balb-c/nude mouse was inoculated subcutaneously at the right flank with A2058 melanoma tumor cells (5×10^6+Matrigel) in 0.2 ml of PBS for tumor development. 10 animals per group were randomized when the average tumor volume reached 74 mm^3. Test compounds were prepared as DMSO stocks and diluted in the injection vehicle before administration. The treatment was administered every other day (QOD) as a peritumoral injection. Vehicle composition was 4% DMSO, 5% ethanol, 20% PEG200, 71% saline. Dosing volume for all groups: 5 mL/kg.
Body weight and clinical signs were monitored throughout the study.

SMILES strings stand for the structures.

In general, IC50 refers to the concentration that inhibits the measured activity by half.

`COc1ccc2c(=O)c(-c3ccc(CCCC[P+](c4ccccc4)(c4ccccc4)c4ccccc4)cc3)coc2c1OC.[Br-]` [SND470, (4-(4-(7,8-Dimethoxy-4-oxo-4H-chromen-3-yl)phenyl)butyl)triphenylphosphonium bromide]: the IC50 in series [1] was found to be 910 nM; in series [2], 14 nM; in series [3], 250 nM; in series [4], 40 nM; in series [5], 140 nM; in series [6] it was 920 nM. In addition, the IC50 in series [7] came out at 200 nM; in series [8], 470 nM; in series [12] it was 1530 nM. Further, the “Fold activation of Caspase 3/7” value in [9] is given as 3.32 Fold; in series [10], 3.15 Fold; in series [11], 13.98 Fold. For the same compound, in series [13], the “finding at the site of the injection” value is “slight scabbing at the site of the injection”.
